In US5063242A (priority 1990, dated 1991):

Test system: carrageenan footpad edema in rats
Conditions: rat, in vivo, po, 5 mg/kg

COc1ccc2c(c1)c(CC(=O)O)c(C)n2C(=O)c1ccc(Cl)cc1 [Indomethacin]
% I: 48% | Delta Edema (x ± SEM): 40 ± 2.5
